From ChEMBL document CHEMBL4706707, “Discovery of novel HBV capsid assembly modulators by structure-based virtual screening and bioassays” (Bioorg Med Chem, 2021)

Experiments:
[1] = Cytotoxicity against human HepG2.2.15 cells assessed as reduction in cell viability compound addition at every 3 days for 7 days by MTT assay; assay type: cell-based, HepG2 2.2.15; conditions: time 7 day
[2] = system: Hepatitis B virus; assay: Antiviral activity against HBV infected in human HepG2.2.15 cells assessed as inhibition of viral growth measured by reduction in DNA level compound addition at every 3 days for 7 days by qPCR analysis; assay type: functional, organism-based
[3] = system: Hepatitis B virus; assay: Antiviral activity against HBV infected in human HepG2.2.15 cells assessed as inhibition of viral growth measured by reduction in DNA level at 20 uM compound addition at every 3 days for 7 days by qPCR analysis relative to control; assay type: functional; conditions: HepG2.2.15, 168 h, time 7 day
[4] = system: HEK293T; assay: Inhibition of HBV VFP-fused HBV-VN (N1 to 154 residue)/ VFP-fused HBV-VC (C155 to 239 residue) capsid protein assembly in 293T cells assessed as mean flouroscent intensity sat 50 uM by BIFC assay; assay type: cell-based; conditions: Hepatitis B virus

| Structure (SMILES) | CC50 at 168 h [1] | EC50 [2] | inhibition at 20 µM [3] | Flu intensity [4] |
| --- | --- | --- | --- | --- |
| Cc1cccc(-c2cc(C(=O)NCc3ccccn3)c3ccccc3n2)c1 | > 20 µM | > 20 µM | – | – |
| O=C(c1cc(-c2cccc(Br)c2)nc2ccccc12)N1CCC(Cc2ccccc2)CC1 | > 20 µM | > 20 µM | – | – |
| CS(=O)(=O)N1CCCc2cc(C(=O)Nc3ccccc3C(=O)NCc3ccccc3)ccc21 | – | – | 36.6% | – |
| O=C(c1cc(-c2ccsc2Cl)nc2ccccc12)N1CCN(Cc2ccccc2)CC1 | > 20 µM | 8.3 µM | – | – |
| CC(C)Cc1ccc(-c2cc(C(=O)N3CCC(Cc4ccccc4)CC3)c3ccccc3n2)cc1 | > 20 µM | > 20 µM | – | – |
| Cc1ccc(-c2n[nH]c(SCC(=O)N3c4ccccc4Sc4ccccc43)n2)cc1 | – | – | 48.7% | – |
| O=C(c1cc(-c2ccsc2Cl)nc2ccccc12)N1CCN(C/C=C/c2ccccc2)CC1 | > 20 µM | 11.9 µM | – | – |
| CCOC(=O)C1=C(CN2CCOCC2)NC(c2nccs2)=N[C@H]1c1ccc(F)cc1Br | – | – | – | 0.41 |
| Cc1ccc(-c2cc(C(=O)N3CCN(Cc4ccccc4)CC3)c3ccccc3n2)cc1 | > 20 µM | 14.5 µM | – | – |
| O=C(Nc1c(C(=O)N2CCCCCC2)cnn1-c1ccccc1)c1cccc(F)c1 | – | – | 13.5% | – |
| O=C(OCc1ccc(Cl)cc1)c1cc(-c2ccccc2)nc2ccccc12 | > 20 µM | > 20 µM | – | – |
| Cc1ccc([C@H](C)NC(=O)c2cc(-c3cccc(C)c3)nc3ccccc23)cc1 | > 20 µM | > 20 µM | – | – |
| Cn1c(=O)[nH]c(=O)c2c1nc(SCc1ccc(Cl)cc1)n2CCCc1ccccc1 | – | – | 64.8% | – |
| O=C(CN1C(=O)c2ccccc2C1=O)Nc1ccccc1C(=O)N(Cc1ccccc1)Cc1ccccc1 | – | – | 23.3% | – |
| CCCc1nc2ccccc2n1Cc1nc2ccccc2n1CCO | – | – | 8.1% | – |
| O=C(CCCCC(=O)Nc1ccccc1C(=O)Nc1cccc(Cl)c1)Nc1ccccc1C(=O)Nc1cccc(Cl)c1 | – | – | 30.1% | – |
| CCN(C(=O)Cn1c([C@@H]2CC(=O)N(c3ccccc3C)C2)nc2ccccc21)c1ccccc1 | – | – | -8.36% | – |

| Structure (SMILES) | CC50 at 168 h [1] | EC50 [2] | inhibition at 20 µM [3] | Flu intensity [4] |
| --- | --- | --- | --- | --- |
| COc1cc(OC)c(C(=O)Nc2cccc(S(=O)(=O)N3CCCC3)c2)cc1OC | – | – | 2.32% | – |
| O=C(c1cc(-c2ccccc2)nc2ccccc12)N1CCC(Cc2ccccc2)CC1 | > 20 µM | 8.7 µM | – | – |
| O=C(Nc1ccccc1F)c1ccccc1C(=O)Nc1ccccc1F | – | – | 38.5% | – |
| O=C(Nc1cc(Cl)ccc1O)c1cccc(N2C(=O)c3ccccc3C2=O)c1 | – | – | 8.12% | – |
| N#CC1=C(N)N(c2nc[nH]n2)C2=C(C(=O)C[C@@H](c3ccccc3)C2)[C@H]1c1cccnc1 | – | – | 33% | – |
| O=C(NCc1ccc(Cl)cc1)c1cc(-c2ccccc2)nc2ccccc12 | > 20 µM | 15.7 µM | – | – |
| COc1ccc(-c2cc(C(=O)OCc3ccccc3)c3ccccc3n2)cc1 | > 20 µM | > 20 µM | – | – |
| O=C(c1cc(-c2ccsc2Cl)nc2ccccc12)N1CCC(Cc2ccccc2)CC1 | > 20 µM | 6.7 µM | – | – |
| CCOc1cccc(-c2cc(C(=O)NCc3nnc(C(C)(C)CC)s3)c3ccccc3n2)c1 | > 20 µM | > 20 µM | – | – |
| COc1ccccc1N1CCN(C(=O)c2cc(-c3ccc(C)c(C)c3)nc3ccccc23)CC1 | > 20 µM | 15.3 µM | – | – |
| O=C(Nc1ccccc1N1CCN(C(=O)c2ccccc2)CC1)C(c1ccccc1)c1ccccc1 | – | – | 12.2% | – |
| Cc1ccc(CN2C(=N)C(C(=O)NCc3cccnc3)=CC3C(=O)N4C=CC=CC4=NC32)cc1 (centres undefined) | – | – | 54.5% | – |
| Cc1cccc(-c2cc(C(=O)N3CCC(Cc4ccccc4)CC3)c3ccccc3n2)c1 | > 20 µM | 1.8 µM | – | 0.25 |
| CCOc1cccc(-c2cc(C(=O)N3CCC(Cc4ccccc4)CC3)c3ccccc3n2)c1 | > 20 µM | 9.8 µM | – | – |
| Cc1ccc(C(=O)COC(=O)c2ccccc2NC(=O)Cc2ccccc2)cc1 | – | – | 45.9% | – |
| Cc1ccc(-c2cc(C(=O)N3CCC(Cc4ccccc4)CC3)c3ccccc3n2)cc1 | > 20 µM | 11.7 µM | – | – |
| Cc1ccc(-c2cc(C(=O)N3CCN(C/C=C/c4ccccc4)CC3)c3ccccc3n2)cc1C | > 20 µM | 5.6 µM | 72.5% | – |
